Holding throughout (assay): antibacterial activity, MIC (Table)
Common to all, as to format: cell-based

The test system of experiment [1] is Klebsiella pneumoniae PCO 602. The settings on record: PCO602.
Experiment [2] concerns Pseudomonas aeruginosa NCTC 10490. The settings on record: NCTC10490.
In experiment [3] the test system is Bacillus subtilis ATCC 6633. The settings on record: ATCC6633.
In experiment [4] the test system is Streptococcus aureus Smith.
The test system of experiment [5] is Escherichia coli 59 (PC ase II).
The subject of another experiment is Proteus vulgaris IID874.
Experiment [6] has as its system Escherichia coli RECl (PC ase I).
The subject of a further experiment is Proteus inconstans 113. The settings on record: Providencia alcalifaciens.
For experiment [7], the system named is Escherichia coli NIHJ JC-2. The settings on record: NIHJJC2.
The test system of experiment [8] is Streptococcus aureus 209p JC-1.
The test system of experiment [9] is Pseudomonas putida IID 5121. The settings on record: IID5121.
The next experiment has as its system Serratia marcescens NHL.
In the next experiment the test system is Proteus inconstans 93. The settings on record: Providencia alcalifaciens.
In experiment [10] the test system is Escherichia coli 68 (PC ase IV).
Another experiment concerns Salmonella typhi H - 901. The settings on record: Salmonella enterica.

Each structure is given as a SMILES string. In brackets after ≈: the same amount, converted by molar mass.

As for `C/C(CO)=C1\C(=O)N2C(C(=O)O)=C(Sc3ncccn3)C[C@H]12` [(5R)6(E)-(1-methyl-2-hydroxyethylidene)-3-(2-pyrimidinylthio)-1-azabicyclo[3.2.0]hept-2-en-7-one-2-carboxylic acid], the MIC (usually the lowest concentration found to suppress growth) in experiment [1] worked out at 0.39 µg/mL (≈ 1.22 µM); in experiment [2], 1.56 µg/mL (≈ 4.89 µM); in [3], 0.78 µg/mL (≈ 2.44 µM); in experiment [4], 0.2 µg/mL (≈ 0.626 µM); in experiment [5], 0.2 µg/mL (≈ 0.626 µM); with Proteus vulgaris IID874, 0.05 µg/mL (≈ 0.157 µM). In addition, the MIC in [6] was 0.39 µg/mL (≈ 1.22 µM); with Proteus inconstans 113, 0.78 µg/mL (≈ 2.44 µM); in experiment [7], 0.39 µg/mL (≈ 1.22 µM); in experiment [8], 0.05 µg/mL (≈ 0.157 µM); in [9], 100 µg/mL (≈ 313 µM); in the experiment with Serratia marcescens NHL, 0.78 µg/mL (≈ 2.44 µM). The MIC (against Proteus inconstans 93; in [10]; against Salmonella typhi H - 901) was 0.2 µg/mL (≈ 0.626 µM) each time.
